Consider 23 compounds from US11214556B1, “Method of treating colorectal cancer” (King Abdulaziz University, priority 2019, dated 2022).

Where only a bound is given, the exact number is not on record here.

One series concerns HCT-116 cells. Nature of the series: SRB cytotoxicity assay, HCT-116. As to conditions: SRB assay, 72 h exposure, ± SEM. It counts as cell-based, human. On the procedure:
Compounds in this study were tested against colorectal cancer cell line HCT-116, using sulforhodamine-B (SRB) assay. See Skehan, P.; Storeng, R.; Scudiero, D.; Monks, A.; McMahon, J.; Vistica, D.; Warren, J. T.; Bokesch, H.; Kenney, S.; Boyd, M. R., New colorimetric cytotoxicity assay for anticancer-drug screening. J Natl Cancer Inst 1990, 82 (13), 1107-12, incorporated herein by reference in its entirety. […] However, it was clear that compounds bearing hydrophobic aliphatic groups such as MOS-1505 and MOS-1512 are clearly favored in providing anticancer activities. […] The N-aryl substituents were less advantageous in both potency and solubility.
(§1) Different cell lines were originally purchased from American type culture collection (ATCC, Wesel, Germany) and grown in the tissue culture lab of the Egyptian company for production of vaccines, sera and drugs (Vacsera, Giza, Egypt). The cells were transferred to our laboratory and maintained in the appropriate media as following. HCT-116, CACO-2, and HT-29 (human colon cancer cell lines) were maintained in Roswell Park Memorial Institute medium (RPMI1640) (Invitrogen, Carlsbad, Calif.). The mouse skin fibroblasts (C-166) and Baby Hamster Kidney fibroblasts (BHK) were grown in Dulbecco Modified Eagle's medium (DMEM). Both media were supplemented with 1% of […] of streptomycin, 100 units/mL of penicillin and 10% of heat-inactivated fetal bovine serum (Invitrogen, Carlsbad, Calif.) in a humidified, 5% (v/v) CO2 atmosphere at 37° C.
(§2) The sulforhodamine B (SRB) assays were performed according to Skehan, P.; Storeng, R.; Scudiero, D.; Monks, A.; McMahon, J.; Vistica, D.; Warren, J. T.; Bokesch, H.; Kenney, S.; Boyd, M. R., New colorimetric cytotoxicity assay for anticancer-drug screening. J Natl Cancer Inst 1990, 82 (13), 1107-12, incorporated herein by reference in its entirety. Briefly, exponentially growing cells were trypsinized, counted and seeded at the appropriate densities (5000 cells/100 μL/well) into 96-well microtiter plates. Cells were incubated in a humidified atmosphere at 37° C. for 24 h. Then, the cells were exposed to different compounds at the desired concentrations, (0.01, 0.1, 1, 10, and 100 μM) or to 1% dimethyl sulfoxide (DMSO) for 72 h. At the end of the treatment period, the media were removed, and the cells were fixed with 10% trichloroacetic acid at 4° C. for 1 hr. Following, the cells were washed with tap water four times and incubated with SRB 0.4% for 30 min. Excess dye was removed by washing repeatedly with 1% (vol/vol) acetic acid. The protein-bound dye was dissolved in 10 mM Tris base solution for (optical density) OD determination at 510 nm using a SpectraMax plus Microplate Reader (Molecular Devices, CA). Cell viability was expressed relative to the untreated control cells.
(In general: In SRB staining, fixed cells bind dye roughly in proportion to their protein.)

The next series is described as follows: Solubility profile. It counts as physicochemical. As to conditions: stated in words together with C log P.
For the next series, the system named is CACO-2 cells. Nature of the series: SRB cytotoxicity assay, CACO-2. It counts as cell-based, human. As to conditions: ± SEM.
From the text: (§3) Based on the favorable pharmacologic and physicochemical properties of MOS-1512, it was selected as a new lead for the second subset of compounds (MOS-1812 to MOS-5112). The compounds in this series contained variable groups at R^1 and R^2 that were all tested against the three cancer cell lines (HCT-116, Caco-2 and HT-29).
as §1, §2

In the next series the test system is HT-29 cells. Nature of the series: SRB cytotoxicity assay, HT-29. It counts as cell-based, human. The following applies: 72 h exposure, ± SEM.
From the text: as §3, §1, §2

Series [1] deals with CRC cell lines (HCT-116, Caco-2 and HT-29). Nature of the series: Cytotoxic activities against CRC cell lines (statement over three lines). It counts as cell-based. As to conditions: Homo sapiens.
From the text: as §3, §1, §2

[2] abbreviates: Homo sapiens, Caco-2, 72 h exposure.

As a reminder, the melting point is the temperature, or range, at which the solid turns liquid. For the compound `CCOC(=O)/C(=C/c1ccccc1)NC(=O)C=Cc1ccccc1` [Compound 15EE, Ethyl (Z)-2-cinnamamido-3-phenylacrylate], the melting point was found to be 153 °C.
One may read the IC50 as the concentration needed to halve the response being measured. A low value points to higher potency. The compound `O=C(C=Cc1ccccc1)N/C(=C\c1ccccc1)C(=O)NC1CCCC1` [Compound 1503, (Z)-2-cinnamamido-N-cyclopentyl-3-phenylacrylamide] registered a melting point of 239 °C. The half-inhibitory concentration (IC50) with HCT-116 cells (Homo sapiens, HCT-116) is 48.5 ± 3.1 µM.
`O=C(C=Cc1ccccc1)N/C(=C\c1ccccc1)C(=O)NC12CC3CC(CC(C3)C1)C2` [Compound 1505, (Z)—N-(1-adamantanyl)-2-cinnamamido-3-phenylacrylamide] displayed a half-maximal inhibitory concentration (IC50) with HCT-116 cells (Homo sapiens, HCT-116) of 14.7 ± 0.3 µM. Besides, the solubility result in the series “Solubility profile” is given as “poor solubility”.
Turning to `O=C(/C=C/c1ccccc1)N/C(=C\c1ccccc1)C(=O)Nc1cccnc1` [Compound 1507, (Z)-2-[(E)-cinnamamido]-3-phenyl-N-(3-pyridyl)acrylamide], the melting point was > 250 °C (dec.). In the series with HCT-116 cells (Homo sapiens, HCT-116), the IC50 is > 100 µM.
The matching figures for `O=C(/C=C/c1ccccc1)N/C(=C\c1ccccc1)C(=O)NCCO` [Compound 1532, (Z)-2-[(E)-cinnamamido]-N-(2-hydroxyethyl)-3-phenyl-acrylamide]: 204 °C and > 100 µM.
Consider `CCCNC(=O)/C(=C/c1ccc(F)cc1)NC(=O)/C=C/c1ccc(Cl)cc1` [Compound 2312, (Z)-2-[(E)-3-(4-chlorophenyl)acrylamido]-3-(4-fluorophenyl)-N-propylacrylamide], for which the IC50 with CACO-2 cells (setting [2]) is 2.6 ± 0.233 µM; in the series with HCT-116 cells (Homo sapiens, HCT-116) it was 3.8 ± 0.24 µM; in the series on HT-29 cells (Homo sapiens, HT-29, monolayer), 4 ± 0.14 µM; in series [1], < 5 µM.
The matching figures for `CCCNC(=O)/C(=C/c1ccc(N(C)C)cc1)NC(=O)/C=C/c1ccc(Cl)cc1` [Compound 2812, (Z)-2-[(E)-3-(4-chlorophenyl)acrylamido]-3-[4-(dimethylamino)phenyl]-N-propylacrylamide]: 17 ± 0.8 µM, 20.7 ± 0.32 µM, 9.52 ± 0.42 µM and < 5 µM.
For `CCCNC(=O)/C(=C/c1ccc(O)c(OC)c1)NC(=O)/C=C/c1ccc(C)cc1` [Compound 3512, (Z)-3-(4-hydroxy-3-methoxyphenyl)-N-propyl-2-[(E)-3-(p-tolyl)acrylamidolacry]amide], the 50% inhibitory concentration (IC50) in the series on CACO-2 cells (72 h exposure) was determined as 20.9 ± 1.1 µM; in the series with HCT-116 cells, 26.3 ± 1.3 µM; with HT-29 cells (monolayer), 15.1 ± 0.67 µM.
Consider `CCCNC(=O)/C(=C/c1ccc(O)c(OC)c1)NC(=O)/C=C/c1cccs1` [Compound 3612, (Z)-3-(4-hydroxy-3-methoxyphenyl)-N-propyl-2-[(E)-3-(thien-2-yl)acrylamidolacry]amide], for which the IC50 in the series on CACO-2 cells (72 h exposure) worked out at 28.3 ± 1.3 µM; with HCT-116 cells, 24.8 ± 1.4 µM; with HT-29 cells (monolayer) it was 48.3 ± 1.9 µM.
Take `CCCNC(=O)/C(=C/c1c[nH]c2ccccc12)NC(=O)/C=C/c1ccc(Cl)cc1` [Compound 3812, (Z)-2-[(E)-3-(4-chlorophenyl)acrylamido]-3-(1H-indol-3-yl)-N-propylacrylamide]: the concentration for half-maximal inhibition (IC50) is 3.35 ± 0.05 µM in the series with CACO-2 cells (setting [2]); 3.51 ± 0.21 µM with HCT-116 cells (Homo sapiens, HCT-116); 3.41 ± 0.03 µM in the series on HT-29 cells (Homo sapiens, HT-29, monolayer); < 5 µM in series [1].
The matching figures for `CCCNC(=O)/C(=C/c1c[nH]c2ccccc12)NC(=O)/C=C/c1ccc(OC)cc1` [Compound 3912, (Z)-3-(1H-indol-3-yl)-2-[(E)-3-(4-methoxyphenyl)acrylamido]-N-propylacrylamide]: 2.07 ± 0.03 µM, 4.35 ± 0.29 µM, 2.49 ± 0.04 µM and < 5 µM.
For `CCCNC(=O)/C(=C/c1c[nH]c2ccccc12)NC(=O)/C=C/c1ccc(C)cc1` [Compound 4012, (Z)-3-(1H-indol-3-yl)-N-propyl-2-[(E)-3-(p-tolyl)acrylamidolacry]amide], the IC50 in the series on CACO-2 cells (72 h exposure) came out at 2.3 ± 0.08 µM; in the series with HCT-116 cells, 3.39 ± 0.1 µM; in the series with HT-29 cells (monolayer), 3.12 ± 0.06 µM.
`CCCNC(=O)/C(=C/c1cccnc1)NC(=O)C=Cc1ccccc1` [Compound 4212, (Z)-2-cinnamamido-N-propyl-3-(pyridin-3-yl)acrylamide]: the IC50 was 66 ± 2.2 µM in the series with CACO-2 cells (setting [2]); 73 ± 2.5 µM with HCT-116 cells (Homo sapiens, HCT-116); > 100 µM in the series on HT-29 cells (Homo sapiens, HT-29, monolayer).
Consider `CCCNC(=O)/C(=C/c1cccnc1)NC(=O)/C=C/c1ccc(Cl)cc1` [Compound 4312, (Z)-2-[(E)-3-(4-chlorophenyl)acrylamido]-N-propyl-3-(pyridin-3-yl)acrylamide], for which the IC50 with CACO-2 cells (setting [2]) is 47.3 ± 1.9 µM; with HCT-116 cells (Homo sapiens, HCT-116) it was 49.4 ± 1.9 µM; with HT-29 cells (Homo sapiens, HT-29, monolayer), 36 ± 1.7 µM.
The matching figures for `CCCNC(=O)/C(=C/c1cccnc1)NC(=O)/C=C/c1ccc(OC)cc1` [Compound 4412, (Z)-2-[(E)-3-(4-methoxyphenyl)acrylamido]-N-propyl-3-(pyridin-3-yl)acrylamide]: 38.1 ± 2 µM, 52.1 ± 1.6 µM and 72.7 ± 6.4 µM.
Regarding `CCCNC(=O)/C(=C/c1cccnc1)NC(=O)/C=C/c1ccc(C)cc1` [Compound 4512, (Z)—N-propyl-3-(pyridin-3-yl)-2-[(E)-3-(p-tolyl)acrylamidolacry]amide], the IC50 is 27 ± 1.8 µM in the series with CACO-2 cells (72 h exposure), > 100 µM in the series with HCT-116 cells and > 100 µM in the series on HT-29 cells (monolayer).
Regarding `CCCNC(=O)/C(=C/c1cccnc1)NC(=O)/C=C/c1cccs1` [Compound 4612, (Z)—N-propyl-3-(pyridin-3-yl)-2-[(E)-3-(thien-2-yl)acrylamidolacry]amide], the IC50 in the series with CACO-2 cells (72 h exposure) is 41.8 ± 1.4 µM; in the series on HCT-116 cells, > 100 µM; in the series on HT-29 cells (monolayer) it was 68.8 ± 6.9 µM.
`CCCNC(=O)/C(=C/c1ccc([N+](=O)[O-])cc1)NC(=O)C=Cc1ccccc1` [Compound 4712, (Z)-2-cinnamamido-3-(4-nitrophenyl)-N-propylacrylamide]: the IC50 in the series on CACO-2 cells (setting [2]) was 44.2 ± 2.7 µM; in the series with HCT-116 cells (Homo sapiens, HCT-116) it was 17.3 ± 1.3 µM; with HT-29 cells (Homo sapiens, HT-29, monolayer) it was 23.2 ± 1.9 µM.
For `CCCNC(=O)/C(=C/c1ccc([N+](=O)[O-])cc1)NC(=O)/C=C/c1ccc(Cl)cc1` [Compound 4812, (Z)-2-[(E)-3-(4-chlorophenyl)acrylamido]-3-(4-nitrophenyl)-N-propylacrylamide], the IC50 in the series with CACO-2 cells (setting [2]) is > 100 µM; in the series with HCT-116 cells (Homo sapiens, HCT-116), > 100 µM; in the series with HT-29 cells (Homo sapiens, HT-29, monolayer), 36.9 ± 1.5 µM.
In the case of `CCCNC(=O)/C(=C/c1ccc([N+](=O)[O-])cc1)NC(=O)/C=C/c1ccc(OC)cc1` [Compound 4912, (Z)-2-[(E)-3-(4-methoxyphenyl)acrylamido]-3-(4-nitrophenyl)-N-propylacrylamide], the IC50 in the series with CACO-2 cells (setting [2]) was > 100 µM; in the series with HCT-116 cells (Homo sapiens, HCT-116), > 100 µM; with HT-29 cells (Homo sapiens, HT-29, monolayer) it was 74.3 ± 3.6 µM.
As to `CCCNC(=O)/C(=C/c1ccc([N+](=O)[O-])cc1)NC(=O)/C=C/c1ccc(C)cc1` [Compound 5012, (Z)-3-(4-nitrophenyl)-N-propyl-2-[(E)-3-(p-tolyl)acrylamidolacry]amide], the IC50 in the series with CACO-2 cells (72 h exposure), in the series on HCT-116 cells and in the series with HT-29 cells (monolayer) was > 100 µM each time.
For the compound `CCCNC(=O)/C(=C/c1ccc([N+](=O)[O-])cc1)NC(=O)/C=C/c1cccs1` [Compound 5112, (Z)-3-(4-nitrophenyl)-N-propyl-2-[(E)-3-(thien-2-yl)acrylamidolacry]amide], the figures for the IC50 in the series on CACO-2 cells (72 h exposure), with HCT-116 cells and with HT-29 cells (monolayer) were 34.2 ± 1.1 µM, > 100 µM and > 100 µM, respectively.
For the compound `COc1cccc2c1C(=O)c1c(O)c3c(c(O)c1C2=O)C[C@@](O)(C(=O)CO)C[C@@H]3O[C@H]1C[C@H](N)[C@H](O)[C@H](C)O1` [Doxo, doxorubicin, reference compound], the IC50 with CACO-2 cells (setting [2]) is 0.14 ± 0.05 µM; with HCT-116 cells (Homo sapiens, HCT-116) it was 0.6 ± 0.1 µM; in the series with HT-29 cells (Homo sapiens, HT-29, monolayer) it was 0.3 ± 0.01 µM.
